We go through one compound from US6548041B1, “Dopamine transporter imaging agents” (Organix, Inc., priority 1999, dated 2003).

For data set [1], the target named is T1, DAT sites in striatum (Macaca mulatta, UniProt Q7JHP9).
T1 construct: from tissue; host or cells: brain (striatum) of living rhesus monkeys, imaged in vivo
As to the kind of experiment: SPECT imaging of monkey brain with 99mTc labeled tracers. It is filed as in vivo, Rhesus monkeys. How it is done:
(§1) All SPECT images were acquired with a MultiSPECT 2 gamma camera (Siemens, Hoffman Estates, Ill.) equipped with fan-beam collimators and peaked to the 140 KeV photopeak of ^99mTc (15% window). This camera has intrinsic resolution of 4.6 mm (FWHM), and a sensitivity of ˜240 cps/mCi. Images were acquired over 360° (60 projections/head, 128×128 matrix) in the continuous mode. Image reconstruction was performed using a conventional filtered back-projection algorithm to an in-plane resolution of 10 mm FWHM and attenuation correction via the Chang method.
(§2) Rhesus monkeys weighing approximately 7 kg were anesthetized with ketamine/xylazine (15.0 and 1.5 mg/kg) and positioned prone on the imaging bed of the SPECT camera. Before the start of imaging, a venous catheter was inserted in a peripheral vein for radiopharmaceutical administration. The heads of the animals were immobilized with a custom fabricated head holder. Approximately 20-25 mCi of ^99mTc labeled O-1505T, O-1508T, O-1561T or O-1560T was injected intravenously over 60 seconds. Dynamic SPECT imaging was initiated at the end of the infusion and consisted of 2 min. acquisitions during the first hour and 5 min. acquisitions thereafter.
(§3) SPECT slices with greatest striatal activity or in which the occipital cortex was well visualized were summed and regions of interest (ROI's) were constructed. In the striatal planes, ROI's were placed on the right and left striatum (caudate+putamen). Radioactivity in the right and left striatum were averaged. ROI radioactivities (cpm/cc) were decay corrected to the time of injection. The difference between striatal and occipital cortex activity (specific binding) was calculated for each image and was plotted as a function of time. Corrections for scattered fraction and partial volume effects were not performed.

Data set [2] has as its system DAT sites in striatum. The data set is described as above. As to conditions: SPECT images. It is filed as in vivo, Rhesus monkeys. How it is done:
as §1, §2, §3

The target of the next data set is T2, DAT sites (Macaca mulatta, UniProt Q7JHP9).
T2 construct: from tissue; host or cells: brain (striatum) of living rhesus monkeys, imaged in vivo
T2 sequence (Q7JHP9 1-620): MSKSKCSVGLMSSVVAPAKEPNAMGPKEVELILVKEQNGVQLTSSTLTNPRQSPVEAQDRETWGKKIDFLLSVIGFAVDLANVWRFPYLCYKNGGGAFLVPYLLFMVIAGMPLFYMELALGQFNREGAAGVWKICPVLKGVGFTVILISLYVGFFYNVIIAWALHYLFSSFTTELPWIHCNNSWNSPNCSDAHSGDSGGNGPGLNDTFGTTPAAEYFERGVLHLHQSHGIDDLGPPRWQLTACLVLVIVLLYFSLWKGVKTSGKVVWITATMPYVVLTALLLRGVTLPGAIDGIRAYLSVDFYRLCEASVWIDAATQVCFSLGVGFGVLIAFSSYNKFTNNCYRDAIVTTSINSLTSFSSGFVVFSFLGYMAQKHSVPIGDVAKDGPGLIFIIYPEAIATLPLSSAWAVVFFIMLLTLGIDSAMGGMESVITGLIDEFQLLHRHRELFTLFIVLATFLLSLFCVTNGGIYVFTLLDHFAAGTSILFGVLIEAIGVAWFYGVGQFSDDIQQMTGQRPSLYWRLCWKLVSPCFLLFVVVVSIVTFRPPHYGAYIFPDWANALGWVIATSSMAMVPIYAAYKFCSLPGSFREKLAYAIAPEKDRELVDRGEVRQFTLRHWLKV
Briefly: Selectivity for DAT sites in the monkey brain (displacement by unlabeled CFT). It is filed as in vivo. How it is done:
For this study, a monkey was positioned supine on the imaging table of the MultiSPECT 2 gamma camera and injected with ˜20 mCi of ^99mTc O-1560T as described above. At approximately 20 min. after radiopharmaceutical administration, the animal was injected with CFT (1.0 mg/kg) and imaging was continued for an additional 70 min.
as §3

Data set [3] can be described thus: Biodistribution and radiation dosimetry (MIRdose). It is filed as in vivo, Sprague-Dawley rats. How it is done:
Groups of male Sprague-Dawley rats were in injected with ˜10 mCi of ^99mTc labeled O-1505T and O-1561T. At time intervals between 5 min. and 24 hrs after injection, groups of 6 animals injected with each radiopharmaceutical were sacrificed and biodistribution was measured. Samples of blood, heart, lung, liver, spleen, kidney, adrenal, stomach, GI tract, testes, bone, bone marrow and skeletal muscle were weighed and radioactivity was measured with a well type gamma counter (LKB model #1282, Wallac Oy, Finland). To correct for radioactive decay and permit calculation of the concentration of radioactivity in each organ as a fraction of the administered dose, aliquots of the injected doses were counted simultaneously. The results were expressed as percent injected dose per gram (%I.D./g) and radiation dosimetry was estimated by the MIRdose method.

Data set [4] deals with T1, DAT sites in striatum. As to the kind of experiment: SPECT of MPTP treated monkeys (animal model of Parkinson's disease). As to conditions: one month after MPTP treatment. It is filed as in vivo, rhesus monkey. From the text:
The neurotoxin MPTP ([…]), when administered to monkeys, produces a spectrum of motor, cognitive, biochemical and morphological changes that is not replicated in rodents. MPTP-treated monkeys develop neurological deficits (resting tremor, rigidity, akinesia, postural abnormalities), morphological changes (cell loss in the substantia nigra, ventral tegmental area, retrorubal fields) and biochemical changes (severe depletion of DA and decreases in norepinephrine and serotonin) that closely, parallel idiopathic PD and post-encephalitic Parkinsonism.
Two monkeys were treated with MPTP; 3-5 doses of 0.6 mg/kg administered over 10 days. Treatment was performed under ketamine anesthesia (15 mg/kg). This dose of MPTP, has previously been used to produce Parkinsonism within 2-3 weeks and depletion of ^3H or ^11C. CFT binding sites by one month. Animals treated in this manner were expected to show an inverse relationship between SPECT tracer binding and motor dysfunction. […]
SPECT slices with greatest striatal activity or in which the occipital cortex was well visualized were summed and regions of interest (ROI's) were constructed. […] Radioactivity in the right and left striatum were averaged. […] The difference between striatal and occipital cortex activity (specific binding) was calculated for each image and was plotted as a function of time. […]

T1 sequence (Q7JHP9 1-620): as above

On to `CCC(=O)C1C(c2ccc(F)cc2)CC2CCC1N2CCCN1CC[S][99Tc]2(=[O])[S]CC[N]2C(=O)C1` (stereo not drawn) [Compound O-1505T, N-[(2-((3′-N′-Propyl-(1″R)-2″β-1-propanoyl-3″α-(4-fluorophenyl)-tropane)-(2-mercaptoethyl)amino)acetyl)-2-aminoethanethiolato]technetium (V) Oxide], for which the “time after injection to excellent contrast between striatum and the rest of the brain” value is no more than 30 min on DAT sites in striatum [1] (i.v., normal monkeys) and no more than 30 min on DAT sites (before the effect of CFT). The “accumulation of radioactivity in striatum vs other areas of the brain (SPECT images)” value at DAT sites in striatum [1] (images acquired between 30 and 50 minutes after injection) is listed as “high concentrations of radiopharmaceutical in the striatum with minimal accumulation in other areas of the brain”. Besides, the “striatal to occipital cortex ratio” value on DAT sites in striatum [1] (region of interest analysis, SPECT images 30-50 minutes after i.v. injection of 20-25 mCi) is listed as roughly 2.5. Further, in the data set on DAT sites in striatum [2], the “accumulation in thalamus, hypothalamus or midbrain (regions rich in 5-HT transporters)” value is “lack of accumulation”. The “striatal accumulation after a receptor saturating dose of unlabeled CFT” value at DAT sites (CFT 1.0 mg/kg at about 20 min, by 60 minutes after injection) is “no evidence of focal accumulation in the striatum”. In addition, the “accumulation in the striatum (SPECT images)” value at DAT sites (before injection of CFT) is given as “significant accumulation”. In data set [3] (MIRdose calculations from rat biodistribution), the “radiation dose to target organ (urinary bladder)” value is 0.29 rem/mCi. The “total body effective dose” value in data set [3] (MIRdose estimate from rat biodistribution) was 0.037 rem/mCi. Besides, the “clearance from tissues (biodistribution)” value in data set [3] (rat, 5 min to 24 hrs after injection) was “cleared rapidly from all tissues of the rat”. The “striatal accumulation after MPTP treatment compared with normal animals” value on DAT sites in striatum [4] is “the level of accumulation decreased markedly and the striatum could not be differentiated from surrounding structures”.
